Non-standard residues stand in square brackets, D forms with d. No end group written: not given here. *: point of attachment. Cys((RS)-2,3-di(palmitoyloxy)-propyl) = Cys S-substituted with (RS)-2,3-di(palmitoyloxy)-propyl (dipalmitoyl-glyceryl); X1 = (RS)‑2,3‑di(palmitoyloxy)‑propyl, CCCCCCCCCCCCCCCC(=O)OCC(C*)OC(=O)CCCCCCCCCCCCCCC; 1‑tetradecyl‑urea = N-terminal tetradecyl-urea lipid group, CCCCCCCCCCCCCCNC(=O)*; Abu = CC[C@H](N)C(=O)O
Columns and labels:
DC = test: UPam variants: up-regulation of cell surface markers CD40, CD86 and MHC Class II (DC maturation); assay type: cell-based; settings: 3 μM and 30 nM
Protocol: The UPam variants wherein Xn was varied were compared by measuring IL-12 production and the up-regulation of the cell surface markers CD40, CD86 and MHC Class II at 3 μM and 30 nM. Herein, Xn takes the place of serine in the SK4 (SEQ ID NO: 18) peptide part according to formula (2), containing different groups for R^5. Compounds X1 up to X8 containing these different groups R^5, which were studied are listed in the table below, wherein X1 is the UPam-14 as prepared in Example 1 and X2 is the UPam-14-Abu as prepared in Example 3. The potency of the compounds to upregulate CD40 followed the trend as observed in the DC maturation assay. […] In the up-regulation of the cell surface marker CD86 and MHC class II a corroborated trend was observed.

[1] = system: murine dendritic cell line; test: activation of murine dendritic cell line, IL-12 ELISA; assay type: cell-based; settings: 24 hours, titrating concentrations
Protocol: The two compounds U-Pam-12 and U-Pam-14 as obtained in Example 1 were tested in comparison to unmodified Pam3CysSK4 (SEQ ID NO: 11) for their functional capacity to activate a human TLR2 expressing reporter cell line HEK-TLR2 (FIG. 3A) and a murine dendritic cell line (FIG. 3B).
In the test live TLR2-transfected HEK cells and dendritic cells (5×10^4 cells/well) were incubated with titrating concentrations of the respective Pam compounds in culture medium and incubated at 37° C. After 24 hours, supernatants were harvested and the presence of IL-8 or IL-12 cytokines respectively, was measured by specific sandwich ELISA assays.

murine DC cell line = test: DC maturation: cell surface marker expression in murine DC cell line by FACS (FIG. 4); assay type: cell-based; settings: 30 nM, 48 hours, compared to Pam3CSK4
Protocol: The DCs were subsequently stained with antibodies directed against CD40, CD86 and MHC class II molecules. Mean fluorescence intensity was determined FACS analysis.

[2] = system: human monocyte-derived dendritic cells (moDC); test: activation of human monocyte-derived dendritic cells (moDC): IL12p40, IL12p70 ELISA and CD86 staining (FIG. 5); assay type: cell-based; settings: 48 hours of incubation, compared to Pam3CSK4 or Pam-SLP
Protocol: On day 5 of culturing the CD 14±fraction of donor PBMC in growth medium with IL-4 and GM-CSF, these moDC were incubated with either wt Pam3CSK4 (SEQ ID NO: 11), U-Pam14, Pam3CSK4 (SEQ ID NO: 11)-conjugated or U-Pam14-conjugated synthetic long peptide (Pam-SLP or uPam14-SLP), or left unstimulated. After 48 hours of incubation, the supernatant of the moDC cultures was taken, which was subjected to IL12p40 (FIG. 5A) and IL12p70 (FIG. 5B) ELISA analysis. After 48 hours of incubation, the moDCs were stained with antibodies directed against CD86 (FIG. 5C).

cellular immune response = settings: mice; Vaccine 22 (2004) 2494-2499; cited from earlier work

| Substance | up-regulation of CD40 compared to Pam3Cys-SK4 (DC) | stimulation (IL-12 cytokine production) compared to unmodified Pam3CysSK4 [1] | expression of cell surface molecules CD40, CD86 and MHC class II (mean fluorescence intensity) (murine DC cell line) | activation of human dendritic cells (IL12p40, IL12p70, CD86) [2] | additive for eliciting a cellular immune response (cellular immune response) |
| --- | --- | --- | --- | --- | --- |
| 1-tetradecyl-urea-Cys((RS)-2,3-di(palmitoyloxy)-propyl)-Abu-Lys-Lys-Lys-Lys-NH2 ({1‑tetradecyl‑urea-Cys((RS)-2,3-di(palmitoyloxy)-propyl)}-[Abu]KKKK-NH2) [Upam-14-Abu] | increased amount of up-regulation |  |  |  |  |
| 1-tetradecyl-urea-Cys((RS)-2,3-di(palmitoyloxy)-propyl)-Ser-Lys-Lys-Lys-Lys-NH2 ({1‑tetradecyl‑urea}-C(X1)SKKKK-NH2; SMILES CCCCCCCCCCCCCCCC(=O)OCC(CSC[C@H](NC(=O)NCCCCCCCCCCCCCC)C(=O)N[C@@H](CO)C(=O)N[C@@H](CCCCN)C(=O)N[C@@H](CCCCN)C(=O)N[C@@H](CCCCN)C(=O)N[C@@H](CCCCN)C(N)=O)OC(=O)CCCCCCCCCCCCCCC) [U-Pam-14] | increased amount of up-regulation | superior to wt Pam | superior to wt Pam | improves activation of human dendritic cells |  |
| Pam3Cys-SK4: established TLR2/TLR1 ligand, state of the art lipopeptide adjuvant (SEQ ID NO: 11) (CSKKKK; not fully specified (residue 1, N-terminus)) |  |  |  |  | most effective additive |
